From article PMC3076582 (European Journal of Clinical Pharmacology, 2010)
Like-named read-outs stand apart in the source and are kept apart here.

Assays:
[1] = type: in vivo, human; settings: for Dose-corrected serum concentration, 25th percentile / Dose-corrected serum concentration, 75th percentile / Dose-corrected serum concentration, mean / Dose-corrected serum concentration, median / Dose-corrected serum concentration, minimum to maximum / Uncorrected serum concentration, 25th percentile / Uncorrected serum concentration, 75th percentile / Uncorrected serum concentration, mean / Uncorrected serum concentration, minimum to maximum / Uncorrected serum concentration, median / Ratio metabolite/oxycodone serum concentration, 25th percentile / Ratio metabolite/oxycodone serum concentration, 75th percentile / Ratio metabolite/oxycodone serum concentration, mean / Ratio metabolite/oxycodone serum concentration, median / Ratio metabolite/oxycodone serum concentration, minimum to maximum: hospitalised patients; for Uncorrected serum concentration, median: oral oxycodone, trough sample; for Serum concentration, median / Serum concentration, range: partly different from Table 3; for Ratio metabolite/oxycodone serum concentration, 25th percentile / Ratio metabolite/oxycodone serum concentration, 75th percentile / Ratio metabolite/oxycodone serum concentration, mean / Ratio metabolite/oxycodone serum concentration, median / Ratio metabolite/oxycodone serum concentration, minimum to maximum: uncorrected serum concentrations
CYP2D6 = settings: healthy volunteers; cited from earlier work
CYP3A4 = settings: cited from earlier work
[2] = for Unstandardised coefficient B, ratio noroxycodone/oxycodone / Unstandardised coefficient B, oxycodone serum concentration / Unstandardised coefficient B, ratio oxymorphone/oxycodone: log 10 form
[3] = cited from earlier work
[4] = Mann-Whitney U test; 35 users
[5] = cited from earlier work; remark: listed apart in the source
[6] = cited from earlier work; remark: listed apart in the source
[7] = factor: CYP3A4 inducer (yes = 1)
[8] = factor: CYP3A4 inhibitor (yes = 1)
[9] = factor: sex (men = 1, women = 0)
[10] = factor: time from last oxycodone dose to blood sample

SMILES	Dose-corrected serum concentration, 25th percentile [1]	Dose-corrected serum concentration, 75th percentile [1]	Dose-corrected serum concentration, mean [1]	Dose-corrected serum concentration, median [1]	Dose-corrected serum concentration, minimum to maximum [1]	Uncorrected serum concentration, 25th percentile [1]	Uncorrected serum concentration, 75th percentile [1]	Uncorrected serum concentration, mean [1]	Uncorrected serum concentration, minimum to maximum [1]	Uncorrected serum concentration, median [1]	Serum concentration, median [1]	Serum concentration, range [1]	AUC after blocking the CYP2D6 metabolic pathways of oxycodone with quinidine (CYP2D6)	95% CI for the mean ratio metabolite/oxycodone [1]	95% CI for the uncorrected mean serum concentration [1]	Ratio metabolite/oxycodone serum concentration, 25th percentile [1]	Ratio metabolite/oxycodone serum concentration, 75th percentile [1]	Ratio metabolite/oxycodone serum concentration, mean [1]	Ratio metabolite/oxycodone serum concentration, median [1]	Ratio metabolite/oxycodone serum concentration, minimum to maximum [1]	other results
O=C1CC[C@@]2(O)[C@H]3Cc4ccc(O)c5c4[C@@]2(CCN3)[C@H]1O5 [Noroxymorphone, noroxymorphone]	18 nM × 100 mg 24 h^−1/dose 24 h^−1	44 nM × 100 mg 24 h^−1/dose 24 h^−1	34 nM × 100 mg 24 h^−1/dose 24 h^−1	29 nM × 100 mg 24 h^−1/dose 24 h^−1	0–360 nM × 100 mg 24 h^−1/dose 24 h^−1	8 nM	39 nM	30 nM	0 to 509 nM	17 nM	17 nM	0 to 509 nM									
COc1ccc2c3c1O[C@H]1C(=O)CC[C@@]4(O)[C@@H](C2)NCC[C@]314 [Noroxycodone, noroxycodone]	103 nM × 100 mg 24 h^−1/dose 24 h^−1	261 nM × 100 mg 24 h^−1/dose 24 h^−1	212 nM × 100 mg 24 h^−1/dose 24 h^−1	161 nM × 100 mg 24 h^−1/dose 24 h^−1	0–3,032 nM × 100 mg 24 h^−1/dose 24 h^−1	44 nM	211 nM	209 nM	0–3,571 nM	101 nM		0 to 4,858 nM	increased	1.4 to 1.8 nM	174 to 245 nM	0.7	1.9	1.6	1.1	0.1–24.4	Cmax after blocking the CYP3A4 metabolic pathway with ketoconazole (CYP3A4): decreased; Unstandardised coefficient B, ratio noroxycodone/oxycodone ([2]; factor: BMI): −0.009; Unstandardised coefficient B, ratio noroxycodone/oxycodone [2, 7]: 0.602; Unstandardised coefficient B, ratio noroxycodone/oxycodone [2, 8]: −0.294; Unstandardised coefficient B, ratio noroxycodone/oxycodone ([2]; factor: albumin): 0.006; Unstandardised coefficient B, ratio noroxycodone/oxycodone ([2]; factor: glomerular filtration rate): −0.001; Unstandardised coefficient B, ratio noroxycodone/oxycodone ([2]; factor: oxycodone total daily dose, n = 396, R^2 = 0.19): 0.001; Unstandardised coefficient B, ratio noroxycodone/oxycodone [2, 9]: −0.110; Unstandardised coefficient B, ratio noroxycodone/oxycodone ([2]; factor: systemic steroids (yes = 1)): −0.070; Unstandardised coefficient B, ratio noroxycodone/oxycodone [2, 10]: 0.012; Predicted higher noroxycodone/oxycodone ratio in users of CYP3A4 inducers ([2]; human, in vivo): about 4 times; Predicted lower noroxycodone/oxycodone ratio in users of systemic steroids ([2]; human, in vivo): 15%
COc1ccc2c3c1O[C@H]1C(=O)CC[C@@]4(O)[C@@H](C2)N(C)CC[C@]314 [Oxycodone, oxycodone, reference compound]	90 nM × 100 mg 24 h^−1/dose 24 h^−1	225 nM × 100 mg 24 h^−1/dose 24 h^−1	186 nM × 100 mg 24 h^−1/dose 24 h^−1	144 nM × 100 mg 24 h^−1/dose 24 h^−1	0–1,294 nM × 100 mg 24 h^−1/dose 24 h^−1	43 nM	201 nM	161 nM	0–1,890 nM	97 nM		0 to 1,890 nM	increased		139 to 183 nM						Predicted higher oxycodone serum concentration in men than in women ([2]; calculated from the regression analysis): about 30%; Unstandardised coefficient B, oxycodone serum concentration [2, 7]: −0.786; Unstandardised coefficient B, oxycodone serum concentration [2, 8]: 0.204; Unstandardised coefficient B, oxycodone serum concentration ([2]; factor: oxycodone total daily dose, n = 433, R^2 = 0.35): 0.002; Unstandardised coefficient B, oxycodone serum concentration [2, 9]: 0.113; Unstandardised coefficient B, oxycodone serum concentration [2, 10]: −0.027; Predicted higher oxycodone serum concentration in users of CYP3A4 inhibitors ([2]; versus non-users): 60%; Predicted lower oxycodone serum concentration in users of CYP3A4 inducer drugs ([2]; versus those without CYP3A4 inducer drug): 84%; Plasma concentrations in elderly versus younger patients [3]: may have higher; Serum concentration, users versus non-users of CYP2D6 inhibitors [4]: did not differ; Oral bioavailability [5]: 60–87%
CN1CC[C@]23c4c5ccc(O)c4O[C@H]2C(=O)CC[C@@]3(O)[C@H]1C5 [Oxymorphone, oxymorphone]	1.2 nM × 100 mg 24 h^−1/dose 24 h^−1	4.2 nM × 100 mg 24 h^−1/dose 24 h^−1	3.4 nM × 100 mg 24 h^−1/dose 24 h^−1	2.2 nM × 100 mg 24 h^−1/dose 24 h^−1	0–34 nM × 100 mg 24 h^−1/dose 24 h^−1	0.7 nM	3.2 nM	2.6 nM	0 to 25 nM	1.5 nM	1.5 nM	0 to 27 nM	decreased	0.020 to 0.025 nM	2.3 to 3.0 nM	0.01	0.03	0.02	0.02	0.00032–0.21	AUC after blocking the CYP3A4 metabolic pathway with ketoconazole (CYP3A4): increased; Unstandardised coefficient B, ratio oxymorphone/oxycodone [2, 7]: 0.607; Unstandardised coefficient B, ratio oxymorphone/oxycodone ([2]; factor: number of medications (excluding opioids) taken in the last 24 h): −0.024; Unstandardised coefficient B, ratio oxymorphone/oxycodone ([2]; factor: oxycodone total daily dose, n = 438, R^2 = 0.05): −0.0004; Concentrations in patients with impaired hepatic function [3]: lower; Serum concentration, users versus non-users of CYP2D6 inhibitors [4]: did not differ
CN1CC[C@]23c4c5ccc(O)c4O[C@H]2[C@@H](O)C=C[C@H]3[C@H]1C5 [morphine]																					Additional morphine needed by men compared with women for pain relief [6]: 30–40%
